In patent publication US20240166663A1, “NOVEL PYRIMIDINE DERIVATIVE SHOWING INHIBITION EFFECT ON GROWTH OF CANCER CELLS” (ONCOBIX CO., LTD., priority 2021, published 2024) one finds GI50 data, which are given here for 25 compounds.

The structures appear in SMILES notation.

Sequence of EXON 20 Insertion(NPG) Ba/F3 Cell (P00533 with tags, fused parts or gaps INS772GNP): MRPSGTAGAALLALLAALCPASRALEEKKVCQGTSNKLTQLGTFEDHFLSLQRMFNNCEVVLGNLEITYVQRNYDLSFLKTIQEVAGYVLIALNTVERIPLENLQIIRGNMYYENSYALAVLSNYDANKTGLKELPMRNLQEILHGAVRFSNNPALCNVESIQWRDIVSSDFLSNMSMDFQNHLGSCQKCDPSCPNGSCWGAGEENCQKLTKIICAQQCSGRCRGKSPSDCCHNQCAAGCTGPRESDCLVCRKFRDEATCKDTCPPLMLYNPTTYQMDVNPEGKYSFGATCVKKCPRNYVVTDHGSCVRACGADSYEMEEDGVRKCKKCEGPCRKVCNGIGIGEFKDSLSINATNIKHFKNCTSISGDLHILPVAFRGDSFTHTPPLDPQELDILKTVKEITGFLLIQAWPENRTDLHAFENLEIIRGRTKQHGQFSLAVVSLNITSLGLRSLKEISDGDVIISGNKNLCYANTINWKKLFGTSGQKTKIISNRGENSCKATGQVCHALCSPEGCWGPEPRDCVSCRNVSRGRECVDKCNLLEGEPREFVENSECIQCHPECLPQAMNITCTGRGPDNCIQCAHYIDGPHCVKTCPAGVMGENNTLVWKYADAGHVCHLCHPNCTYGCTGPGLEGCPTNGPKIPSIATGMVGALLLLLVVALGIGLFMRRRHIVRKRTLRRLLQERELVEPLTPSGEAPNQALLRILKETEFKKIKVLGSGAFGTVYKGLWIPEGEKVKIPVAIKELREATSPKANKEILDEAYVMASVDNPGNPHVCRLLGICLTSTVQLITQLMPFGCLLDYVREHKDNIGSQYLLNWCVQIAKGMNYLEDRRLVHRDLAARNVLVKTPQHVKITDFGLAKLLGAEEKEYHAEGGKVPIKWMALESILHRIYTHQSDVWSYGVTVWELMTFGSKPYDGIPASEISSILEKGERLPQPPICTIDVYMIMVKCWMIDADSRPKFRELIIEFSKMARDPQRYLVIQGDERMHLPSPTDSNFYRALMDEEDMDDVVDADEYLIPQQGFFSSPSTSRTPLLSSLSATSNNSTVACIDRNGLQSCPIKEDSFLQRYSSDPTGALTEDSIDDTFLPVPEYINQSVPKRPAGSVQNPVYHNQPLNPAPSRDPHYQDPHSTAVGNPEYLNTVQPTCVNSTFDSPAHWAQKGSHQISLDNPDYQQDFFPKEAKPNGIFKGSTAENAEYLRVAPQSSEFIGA

The assay has as its target EXON 20 Insertion(NPG) Ba/F3 Cell (Homo sapiens, UniProt P00533, INS772GNP, cells depend on it). Put plainly: Measurement of cancer cell growth inhibitory effect (MTT assay). The assay is classed as cell-based, Murine. The conditions noted are these: Ba/F3 cells expressing EGFR with NPG added at D770_N771, 72 hours treatment, read at 595 nm, read-out: EXON 20 Insertion(NPG) Ba/F3 Cell(IC50). The text has this:
Since there is no commercially available lung cancer cell line with EGFR insertion mutation, a method of inserting 3 to 4 amino acids at each site using site direct mutagenesis in a wild type EGFR expression vector was attempted. In the present invention, first, a vector with three amino acids of NPG added to the D770_N771 site with the highest frequency was used, and Ba/F3 cell line was used for expression of these genes.
When the oncogenic mutant EGFR is expressed, dependence on the mutant EGFR for cell growth and apoptosis occurs without IL-3. Therefore, substances that show effective inhibition of mutant EGFR suppress cell growth and induce apoptosis, so the anticancer effect of cells was analyzed through MTT assay.
1×10^4 cells of the previously constructed stable cells were put into a 96 well plate and incubated overnight, and then the compound of Example was dose dependently treated. After 72 hours, MTT reagent was added, and after 3 hours stop buffer (10% SDS) was added. After 24 hours of incubation, the results were analyzed by reading at 595 nm. […] As a control drug, Mobocertinib was used.
Regarding `C=CC(=O)Nc1cc(Nc2cc(Nc3ccccc3-c3ccn(C)n3)ncn2)c(OC)cc1N(C)CCN(C)C` [Example 1, N-(2-((2-(dimethylamino)ethyl)(methyl)amino)-4-methoxy-5-((6-((2-(1-methyl-1H-pyrazol-3-yl)phenyl)amino)pyrimidin-4-yl)amino)phenyl)acrylamide], the GI50 was below 25 nM.

On to `C=CC(=O)Nc1cc(Nc2cc(Nc3ccccc3-n3cccn3)ncn2)c(OC)cc1N(C)CCN(C)C` [Example 2, N-(5-((6-((2-(1H-pyrazol-1-yl)phenyl)amino)pyrimidin-4-yl)amino)-2-((2-(dimethylamino)ethyl)(methyl)amino)-4-methoxyphenyl)acrylamide], for which the GI50 was below 25 nM.

Turning to `C=CC(=O)Nc1cc(Nc2cc(Nc3ccccc3-c3ccn(C)n3)ncn2)c(OC(C)C)cc1N(C)CCN(C)C` [Example 3, N-(2-((2-(dimethylamino)ethyl)(methyl)amino)-4-isopropoxy-5-((6-((2-(1-methyl-1H-pyrazol-3-yl)phenyl)amino)pyrimidin-4-yl)amino)phenyl)acrylamide], the GI50 lay within 25 to 50 nM.

Consider `C=CC(=O)Nc1cc(Nc2cc(Nc3ccccc3-c3ccn(C)n3)ncn2)c(OC)cc1N1CCN(C)CC1` [Example 4, N-(4-methoxy-5-((6-((2-(1-methyl-1H-pyrazol-3-yl)phenyl)amino)pyrimidin-4-yl)amino)-2-(4-methylpiperizin-1-yl)phenyl)acrylamide], for which the GI50 is 25 to 50 nM.

With `C=CC(=O)Nc1cc(Nc2cc(Nc3ccccc3-c3ccn(C)n3)ncn2)c(OC)cc1N1CCOCC1` [Example 5, N-(4-methoxy-5-((6-((2-(1-methyl-1H-pyrazol-3-yl)phenyl)amino)pyrimidin-4-yl)amino)-2-morpholinophenyl)acrylamide], the GI50 was in the range of 25 to 50 nM.

In the case of `C=CC(=O)Nc1cc(Nc2cc(Nc3ccccc3-c3ccn(C)n3)ncn2)c(OC)cc1N1CC[C@H](N(C)C)C1` [Example 6, (S)-N-(2-(3-(dimethylamino)pyrrolidin-1-yl)-4-methoxy-5-((6-((2-(1-methyl-1H-pyrazol-3-yl)phenyl)amino)pyrimidin-4-yl)amino)phenyl)acrylamide], the GI50 fell in the range of 25 to 50 nM.

As to `C=CC(=O)Nc1cc(Nc2cc(Nc3ccccc3-c3ccn(C)n3)ncn2)c(OC)cc1N1CC[C@@H](N(C)C)C1` [Example 7, (R)-N-(2-(3-(dimethylamino)pyrrolidin-1-yl)-4-methoxy-5-((6-((2-(1-methyl-1H-pyrazol-3-yl)phenyl)amino)pyrimidin-4-yl)amino)phenyl)acrylamide], the GI50 is 25 to 50 nM.

As to `C=CC(=O)Nc1cc(Nc2cc(Nc3ccccc3-c3ccn(C)n3)ncn2)c(OC)cc1N(C)[C@@H]1CCN(C)C1` [Example 8, (R)-N-(4-methoxy-2-(methyl(1-methylpyrrolidin-3-yl)amino)-5-((6-((2-(1-methyl-1H-pyrazol-3-yl)phenyl)amino)pyrimidin-4-yl)amino)phenyl)acrylamide], the GI50 was 25 to 50 nM.

With `C=CC(=O)Nc1cc(Nc2cc(Nc3ccccc3-c3ccn(C)n3)ncn2)c(OC)cc1N(C)[C@H]1CCN(C)C1` [Example 9, (S)-N-(4-methoxy-2-(methyl(1-methylpyrrolidin-3-yl)amino)-5-((6-((2-(1-methyl-1H-pyrazol-3-yl)phenyl)amino)pyrimidin-4-yl)amino)phenyl)acrylamide], the GI50 lay in the range of 25 to 50 nM.

As to `C=CC(=O)Nc1cc(Nc2cc(Nc3ccccc3-c3ccn(C)n3)ncn2)c(OCC(F)(F)F)cc1N(C)CCN(C)C` [Example 10, N-(2-((2-(diamethylamino)ethyl)(methyl)amino)-5-((6-((2-(1-methyl-1H-pyrazol-3-yl)phenyl)amino)pyrimidin-4-yl)amino)-4-(2,2,2-trifluoroethoxy)phenyl)acrylamide], the GI50 was below 25 nM.

For the compound `C=CC(=O)Nc1cc(Nc2cc(Nc3ccccc3-c3ccn(C)n3)ncn2)c(OCC)cc1N(C)CCN(C)C` [Example 11], the GI50 lay within 25 to 50 nM.

`C=CC(=O)Nc1cc(Nc2cc(Nc3ccccc3-c3ccn(C)n3)ncn2)c(OC2CC2)cc1N(C)CCN(C)C` [Example 12, N-(4-cyclopropoxy-2-((2-(dimethylamino)ethyl)(methyl)amino)-5-((6-((2-(1-methyl-1H-pyrazol-3-yl)phenyl)amino)pyrimidin-4-yl)amino)phenyl)acrylamide]: the GI50 fell in the range of 25 to 50 nM.

As for `C=CC(=O)Nc1cc(Nc2ncc(C#N)c(Nc3ccccc3-c3ccn(C)n3)n2)c(OC)cc1N(C)CCN(C)C` [Example 13, N-(5-((5-cyano-4-((2-(1-methyl-1H-pyrazol-3-yl)phenyl)amino)pyrimidin-2-yl)amino)-2-((2-(dimethylamino)ethyl)(methyl)amino)-4-methoxyphenyl)acrylamide], the GI50 was in the range of 25 to 50 nM.

Consider `C=CC(=O)Nc1cc(Nc2ncc(C)c(Nc3ccccc3-n3cccn3)n2)c(OC)cc1N(C)CCN(C)C` [Example 14, N-(5-((4-((2-(1H-pyrazol-1-yl)phenyl)amino)-5-methylpyrimidin-2-yl)amino)-2-((2-(dimethylamino)ethyl)(methyl)amino)-4-methoxyphenyl)acrylamide], for which the GI50 fell in the range of 25 to 50 nM.

Take `C=CC(=O)Nc1cc(Nc2ncc(C(F)(F)F)c(Nc3ccccc3-c3ccn(C)n3)n2)c(OC)cc1N(C)CCN(C)C` [Example 15, N-(2-((2-(dimethylamino)ethyl)(methyl)amino)-4-methoxy-5-((4-((2-(1-methyl-1H-pyrazol-3-yl)phenyl)amino)-5-(trifluoromethyl)pyrimidin-2-yl)amino)phenyl)acrylamide]: the GI50 fell in the range of 25 to 50 nM.

With `C=CC(=O)Nc1cc(Nc2ncc(C(=O)OC(C)C)c(Nc3ccccc3-c3ccn(C)n3)n2)c(OC)cc1N(C)CCN(C)C` [Example 16, Isopropyl 2-((5-acrylamido-4-((2-(dimethylamino)ethyl)(methyl)amino)-2-methoxyphenyl)amino)-4-((2-(1-methyl-1H-pyrazol-3-yl)phenyl)amino)pyrimidin-5-carboxylate], the GI50 is below 25 nM.

In the case of `C=CC(=O)Nc1cc(Nc2ncc(C(=O)OC(C)C)c(Nc3ccccc3-n3cccn3)n2)c(OC)cc1N(C)CCN(C)C` [Example 17, Isopropyl 4-((2-(1H-pyrazol-1-yl)phenyl)amino)-2-((5-acrylamido-4-((2-(dimethylamino)ethyl)(methyl)amino)-2-methoxyphenyl)amino)pyrimidin-5-carboxylate], the GI50 was below 25 nM.

On to `C=CC(=O)Nc1cc(Nc2ncc(C(=O)OC)c(Nc3ccccc3-c3ccn(C)n3)n2)c(OC)cc1N(C)CCN(C)C` [Example 18, methyl 2-((5-acrylamido-4-((2-(dimethylamino)ethyl)(methyl)amino)-2-methoxyphenyl)amino)-4-((2-(1-methyl-1H-pyrazol-3-yl)phenyl)amino)pyrimidin-5-carboxylate], for which the GI50 lay within 25 to 50 nM.

For `C=CC(=O)Nc1cc(Nc2ncc(C(=O)OC)c(Nc3ccccc3-n3cccn3)n2)c(OC)cc1N(C)CCN(C)C` [Example 19, methyl 4-((2-(1H-pyrazol-1-yl)phenyl)amino)-2-((5-acrylamido-4-((2-(dimethylamino)ethyl)(methyl)amino)-2-methoxyphenyl)amino)pyrimidin-5-carboxylate], the GI50 fell in the range of 25 to 50 nM.

Consider `C=CC(=O)Nc1cc(Nc2ncc(C(=O)OCC)c(Nc3ccccc3-c3ccn(C)n3)n2)c(OC)cc1N(C)CCN(C)C` [Example 20, ethyl 2-((5-acrylamido-4-((2-(dimethylamino)ethyl)(methyl)amino)-2-methoxyphenyl)amino)-4-((2-(1-methyl-1H-pyrazol-3-yl)phenyl)amino)pyrimidin-5-carboxylate], for which the GI50 was 25 to 50 nM.

With `C=CC(=O)Nc1cc(Nc2ncc(C(=O)OCC)c(Nc3ccccc3-n3cccn3)n2)c(OC)cc1N(C)CCN(C)C` [Example 21, ethyl 4-((2-(1H-pyrazol-1-yl)phenyl)amino)-2-((5-acrylamido-4-((2-(dimethylamino)ethyl)(methyl)amino)-2-methoxyphenyl)amino)pyrimidin-5-carboxylate], the GI50 lay within 25 to 50 nM.

As for `C=CC(=O)Nc1cc(Nc2ncc(C(=O)OC3CC3)c(Nc3ccccc3-c3ccn(C)n3)n2)c(OC)cc1N(C)CCN(C)C` [Example 22, cyclopropyl 2-((5-acrylamido-4-((2-(dimethylamino)ethyl)(methyl)amino)-2-methoxyphenyl)amino)-4-((2-(1-methyl-1H-pyrazol-3-yl)phenyl)amino)pyrimidin-5-carboxylate], the GI50 is 25 to 50 nM.

`C=CC(=O)Nc1cc(Nc2ncc(C(=O)OC(C)C)c(Nc3ccccc3-c3ccn(C)n3)n2)c(OC)cc1N1CCN(C)CC1` [Example 23, Isopropyl 2-((5-acrylamido-2-methoxy-4-(4-methylpiperizin-l-yl)phenyl)amino)-4-((2-(1-methyl-1H-pyrazol-3-yl)phenyl)amino)pyrimidin-5-carboxylate]: the GI50 lay in the range of 25 to 50 nM.

In the case of `C=CC(=O)Nc1cc(Nc2ncc(C(=O)OC(C)C)c(Nc3ccccc3-c3ccn(C)n3)n2)c(OC)cc1N1CCOCC1` [Example 24, Isopropyl 2-((5-acrylamido-2-methoxy-4-morpholinophenyl)amino)-4-((2-(1-methyl-1H-pyrazol-3-yl)phenyl)amino)pyrimidin-5-carboxylate], the GI50 lay in the range of 25 to 50 nM.

As to `C=CC(=O)Nc1cc(Nc2ncc(C(=O)OC(C)C)c(Nc3ccccc3-c3ccn(C)n3)n2)c(OC)cc1N1CC[C@H](N(C)C)C1` [Example 25, Isopropyl(S)-2-((5-acrylamido-4-(3-(dimethylamino)pyrrolidin-1-yl)-2-methoxyphenyl)amino)-4-((2-(1-methyl-1H-pyrazol-3-yl)phenyl)amino)pyrimidin-5-carboxylate], the GI50 lay within 25 to 50 nM.
